From patent US8445467B2, “Reducing risk of type 2 diabetes (T2D)” (Joslin Diabetes Center, Inc., priority 2006, dated 2013)
Several values for one entry are separate records, joined by “and”; a condition that tells them apart may be missing. Equal values may be shown once. Entries after “also recorded” stand apart in the source; their conditions may differ.

Experiments:
[1] = tested on: overweight non-diabetic adults; experiment: Safety and tolerability in the trial
IKKβ/NF-κB = conditions: cited from earlier work
cyclooxygenase enzymes = conditions: cited from earlier work
[2] = tested on: overweight non-diabetic adults; experiment: Glycemia (fasting glucose, OGTT, glycated albumin) in double-masked placebo controlled trial; format: in vivo, human
Source text: (§1) The ability of high doses of systemic salsalate to reduce systemic inflammation and improve metabolic parameters was investigated in a double-masked placebo controlled trial of 20 overweight non-diabetic adults (age: 24 yrs±1, gender 17F/3M, BMI 38 kg/m^2±2), evaluated at baseline and after one month of dally administration of oral salsalate 4 g or placebo.
Subjects were under 30 years old, and obese as defined by a body mass Index (BMI) of ≧ 30 kg/m^2 Participants were excluded for recent blood donation, change in weight of more than 5% in the preceding six months or use of medication known to alter weight, acute febrile illness, biochemical evidence of renal or hepatic dysfunction, aspirin allergy, history of gastritis or gastrointestinal bleeding, current medications known to altar glucose metabolism, or diabetes mellitus based on screening evaluation. Female participants were excluded for pregnancy, lactation, or lack of current use of a hormonal or barrier contraceptive method.
(§2) Participants were instructed to consume a standard high-carbohydrate diet (250-300 grams/day) and abstain from strenuous exercise for three days prior to undergoing, baseline and final evaluations. Subjects were additionally instructed not to alter dietary or exercise habits daring the study Blood pressure was measured twice with the patient supine for 10 minutes. Fasting lipids and cytokines were measured, and oral glucose tolerance tests (OGTT) were performed with glucose, insulin, C-peptide and free fatty acid levels measured prior to and 30, 60, 90 and 120 minutes after 75-gram glucose load. All subjects were non-diabetic based on current American Diabetes Association guidelines (Diagnosis and Classification of Diabetes Mellitus. Diabetes Care 28:S37-S42 (2005)). AUC data were calculated by triangulation. Insulin resistance was determined using homeostasis model assessment (HOMA-IR) for insulin and C-peptide as described using the modified formula: HOMA-IRC-peptide=(fasting C-peptide*fasting glucose)/22.5 See, e.g., Matthews et al, Diabetologia 28:41.2-419 (1985); Wallace et al., Diabetes Care 27; 1487-4495 (2004).
(§3) Compliance was evaluated with blood salicylate levels.
(§4) Glucose was measured by glucose oxidation, cholesterol and HDL by cholesterol esterase assay, triglycerides via hydrolysis to glycerol and FFA (Beckman Synchron CX3delta and CX9, Beckman Coulter, Brea, Calif.), and glycohemoglobin by HPLC (TOSHO 2.2™, Tosoh Bioscience, San Francisco, Calif.). Immunoassays were performed in duplicate on serum specimens by commercial assay including RIA for insulin and C-peptide (Diagnostic Systems Laboratories, Webster, Tex.), and adiponectin (Linco research, St. Charles, Mo., USA); ELISA for free fatty acids (WAKO chemicals, Richmond, Va., USA), and IL-6 and VCAM-1 (R& D Systems, Minneapolis, Minn., USA). CRP was analysed by immunoturbidometry (WAKO chemicals, Richmond, Va., USA), Salicylate levels were assessed commercially using a colorimetric assay (Quest Laboratories, Cambridge, Mass., USA). Glycated albumin was evaluated with the use of a Hitachi 911 lipid and protein analyzer and kits from AsahiKasei (Tokyo, JP). Glycated albumin was calculated by determining (1) the colorimetric measurement of total, albumin; (2) partial enzymatic digestion of albumin at glycated sites; (3) re-assessment of albumin; (4) % glycated albumin=1-3.
The primary endpoint was change from, baseline in glycemic measures using between group comparisons. Secondary outcomes were also assessed as change from baseline within group. Data are presented as mean±standard error unless otherwise noted. Unpaired (salsalate vs. placebo) and paired (pre vs. post) Student t-tests were performed. Treatment effects were determined by calculating differences between baseline sad end of treatment values divided by the baseline value to determine a percent change for each participant. […]

[3] = tested on: overweight non-diabetic adults; experiment: Cytokines, adipokines and inflammatory markers pre- and post-one month of therapy; format: in vivo, human
Method: as §1, §4
(§5) The primary endpoint was change from, baseline in glycemic measures using between group comparisons. Secondary outcomes were also assessed as change from baseline within group. Data are presented as mean±standard error unless otherwise noted. Unpaired (salsalate vs. placebo) and paired (pre vs. post) Student t-tests were performed. Treatment effects were determined by calculating differences between baseline sad end of treatment values divided by the baseline value to determine a percent change for each participant. Repeated measures of ANOVA and area under curve analyses were performed to compare response to oral glucose load before and after treatment. Only subjects completing the trial were included in data analysis. Results were considered significant with two-tailed p-values <0.05.
To evaluate the proposed anti-inflammatory mechanism of action for improvement in glycemia, cytokines and adipokines were assessed pre- and post-one month of therapy in the same population described in Example 1.

[4] = tested on: overweight non-diabetic adults; experiment: Insulin, C-peptide and HOMA-IR in double-masked placebo controlled trial; format: in vivo, human
Source text: as §1, §2, §3, §4, §5

[5] = over the one-month period, p>0.1
[6] = following one month of salsalate therapy

## O=C(Oc1ccccc1C(=O)O)c1ccccc1O [salsalate, 2-hydroxybenzoE acid, 2-carboxyphenyl ester]
[1]; actively treated participants after dose reduction
  reduced dose tolerated without symptoms (individual participants): 3.5 grams per day and 3.0 grams per day
[1]; actively treated, resolved spontaneously
  participants with transient mild transaminitis at the final visit: two
[1]; during the trial
  changes in anion gap: no noted changes
  changes in laboratory analysis of electrolytes: no noted changes
  changes in laboratory analysis of renal function: no noted changes
[1]; final visit, resolved spontaneously
  ALT/AST elevation in individual actively treated participants: similarly mild elevation in both ALT and AST; also recorded: less than twice the upper range of normal
[1]; initiated on 4.0 grams/day orally in two equal doses, on study medication
  participants requiring dose reduction due to complaints of tinnitus, headache or dizziness: Two
[1]; one month, 4 g daily
  symptomatic hypoglycemia: No symptomatic hypoglycemia
[1]; [5]
  change in mean alanine aminotransferase (ALT): no statistically significant change
  change in mean aspartate aminotransferase (AST): no statistically significant change
[1]; participants with rash on active therapy
  respiratory distress: No respiratory distress
[1]; received active therapy
  participants withdrawn due to rash: three
IKKβ/NF-κB
  inhibition of IKKβ/NF-κB compared to aspirin: equipotent inhibitor
Cyclooxygenase enzymes
  inhibition of cyclooxygenase enzymes compared to aspirin: much weaker inhibitor
[2]
  fasting glucose compared to placebo (FIG. 1A): reduced
  glycated albumin compared to placebo (FIG. 1A): reduced
  post oral glucose challenge glucose area under the curve compared to placebo (FIG. 1A): reduced
[2]; after one month of salsalate, baseline 5.0±0.2, p<0.03
  fasting plasma glucose level after treatment: 4.6 ± 0.1 mmol/L
[2]; after one month of salsalate, baseline 12.4±0.4%, p<0.003
  glycated albumin after treatment: 10.3±0.3%
[2]; oral salsalate 4 g daily, one month, 75 g oral glucose, placebo increased by 6±3%, p=0.003
  reduction in glucose area under the curve during oral glucose tolerance testing: 14±5%
[2]; oral salsalate 4 g daily, one month, mean±SE, placebo increase of 5±2%, p<0.002
  reduction in fasting glucose, change from baseline: 8±4%
[2]; oral salsalate 4 g daily, one month, placebo 0.6±0.9%, p<0.002
  reduction in glycated albumin, change from baseline: 17±4%
[2]; within group, one month of salsalate, repeated measure analysis p<0.01
  glycemia response to glucose load: improvements in glycemia; also recorded: improved
[3]
  adiponectin compared to placebo (FIG. 3A): increased significantly
[3]; after one month of salsalate, baseline 0.46±0.08, p=0.05
  fasting non-esterified fatty acids (FFA) levels after treatment: 0.25±0.05 mEq/L
[3]; after one month of salsalate, baseline 10.6±1.7, p=0.01
  adiponectin after treatment: 16.2 ± 2.7 mg/L
[3]; after one month of salsalate, baseline 48.2±10.5, p=0.05
  CRT concentrations after treatment: 30.2 ± 7.4 nmol/L
[3]; [6]
  II-6: did not change significantly
  soluble VCAM-1: did not change significantly
[3]; one month of salsalate, placebo decreased 1±5%, p=0.003
  adiponectin increase, change from baseline: 56±17%
[3]; p<0.05
  C-reactive protein (CRP) following treatment (FIG. 3B): lower
  Free Fatty Acids (FFA) following treatment (FIG. 3B): lower
[4]; after one month of salsalate, baseline 1.6±0.2, p=0.02
  fasting C-peptide levels after treatment: 1.1 ± 0.2 nmol/L
[4]; one month of salsalate, placebo increase of 4±7%, p=0.02
  reduction in C-peptide AUC post glucose challenge: 23±4%
[4]; one month of salsalate, placebo increase of 5±6%, p<0.01
  reduction in fasting C-peptide, change from baseline: 30±7%
[4]; one month of salsalate, placebo increased 9±5%, p=0.003
  HOMA IRc peptide lowered by: 35±8%
[4]; post one month of salsalate, pre 4.6±0.9, p=0.9, not significantly changed
  HOMA-IR using insulin, post treatment: 4.2±0.6
[4]; pre vs post one month of salsalate
  fasting insulin values: unchanged
[4]; pre- and post-salsalate, 75 g oral glucose
  insulin levels following glucose challenge: remained unchanged
[4]; salsalate compared to placebo
  insulin sensitivity calculated by HOMA IRc-peptide (FIG. 2C): improvement
[4]; salsalate vs placebo
  C peptide response to Oral Glucose Tolerance Test calculated by AUC (FIG. 2C): significant between group difference
